Test results published in patent publication US20130035344A1, “PHARMACEUTICAL COMPOSITION FOR ORAL ADMINISTRATION” (KOWA Co., Ltd., priority 2009, published 2013).

Legend:
Type in all cases: physicochemical
[1] = Measurement of pH value of sample or tablet in purified water
Protocol: 103.65 mg of each of the samples 1 to 6 (53.65 mg for sample 2 only) was introduced into a beaker, and 50 mL of purified water was added thereto. While the mixture was stirred with a magnetic stirrer, the pH of the solution was measured with a glass electrode type hydrogen ion concentration meter (manufactured by Toa Electronics, Inc.; HM-50V). 50 mL of purified water was further added thereto, and then the measurement of pH was carried out in the same manner.
The pH values of the samples 7 to 15 were measured in the same manner as that used in Test Example 2. Meanwhile 153.65 mg of sample 7, 98.65 mg of sample 8, 93.65 mg of sample 9, 88.65 mg of sample 10, 78.65 mg of sample 11, 68.65 mg of sample 12, 63.65 mg of sample 13, 58.65 mg of sample 14, and 55.65 mg of sample 15 were used.
The pH values of the tablets of Examples 8 to 10 and Comparative Examples 9 and 10 were measured by the same method as that used in Test Example 2. Meanwhile, one tablet was used for each measurement.
The pH values of the tablets of Example 11 and Comparative Example 11 were measured in the same manner as that used in Test Example 2. Meanwhile, one tablet was used for each measurement.

[2] = Dissolution test, JP second method (paddle method), second fluid for dissolution test
Protocol: The dissolubility of the samples 1 to 6 was examined according to the second method (paddle method) of the dissolution test method according to the general test methods of the Japanese Pharmacopoeia.
103.65 mg of each of the samples 1 to 6 (53.65 mg for sample 2 only) was introduced into 900 mL of the second fluid for dissolution test according to the Japanese Pharmacopoeia, and the test was carried out under the conditions of a temperature of 37±0.5° C. and a speed of paddle rotation of 50 rpm. Thus, the concentrations of the compound a after 5, 10, 15, 30, 45 and 60 minutes were measured. The sample solution collected at each time point was filtered through a membrane filter made of PTFE (DISMIC-25HP manufactured by Toyo Roshi Kaisha, Ltd.) having a pore size of 0.45 μm, and was analyzed by a high performance liquid chromatographic method using a reversed phase column (manufactured by Nomura Chemical Co., Ltd.; Develosil ODS-HG-5). Thus, the dissolution rates were calculated.
The dissolubility of the samples 7 to 15 was examined by carrying out the test in the same manner as that described in Test Example 1, except that 153.65 mg of sample 7, 98.65 mg of sample 8, 93.65 mg of sample 9, 88.65 mg of sample 10, 78.65 mg of sample 11, 68.65 mg of sample 12, 63.65 mg of sample 13, 58.65 mg of sample 14, and 55.65 mg of sample 15 were respectively introduced into 900 mL of the second fluid for dissolution test according to the Japanese Pharmacopoeia.
The dissolubility of the tablets of Examples 8 to 10 and Comparative Examples 9 and 10 was examined by carrying out the test by the same method as that described in Test Example 1, except that one tablet each of the Examples and Comparative Examples were introduced into 900 mL of the second fluid for dissolution test according to the Japanese Pharmacopoeia.
The dissolubility of the tablets of Example 11 and Comparative Example 11 was examined by carrying out the test in the same manner as that described in Test Example 1, except that each of tablets of Example 11 and Comparative Example 11 was introduced into 900 mL of the second fluid for dissolution test according to the Japanese Pharmacopoeia.

[3] = Solubility of compound a in water
From the text: However, compound a has low solubility in weakly acidic environments to alkaline environments (for example, the solubility in water is 0.05% (W/V)). Therefore, in the case of patients of achlorhydria, which is considered to develop more frequently in elderly people, there has been a concern that the dissolubility of the compound a from the pharmaceutical composition in the stomach may be insufficient, and there may be variations in the efficacy of the drug.

SMILES | pH (100 mL) ([1]; after a further 50 mL purified water (100 mL)) | pH (50 mL) ([1]; sample or one tablet in 50 mL purified water, stirred) | dissolution rate of compound a, Time (min) 0 ([2]; 0 min, 900 mL JP second fluid, 37±0.5° C., paddle 50 rpm) | dissolution rate of compound a, Time (min) 5 ([2]; 5 min, 900 mL JP second fluid, 37±0.5° C., paddle 50 rpm) | dissolution rate of compound a, Time (min) 10 ([2]; 10 min, 900 mL JP second fluid, 37±0.5° C., paddle 50 rpm) | dissolution rate of compound a, Time (min) 15 ([2]; 15 min, 900 mL JP second fluid, 37±0.5° C., paddle 50 rpm) | dissolution rate of compound a, Time (min) 30 ([2]; 30 min, 900 mL JP second fluid, 37±0.5° C., paddle 50 rpm) | dissolution rate of compound a, Time (min) 45 ([2]; 45 min, 900 mL JP second fluid, 37±0.5° C., paddle 50 rpm) | dissolution rate of compound a, Time (min) 60 ([2]; 60 min, 900 mL JP second fluid, 37±0.5° C., paddle 50 rpm) | solubility in water [3] | dissolubility of compound a (in words) ([2]; JP second fluid, paddle method)
CSc1cc(C)nc(SC)c1NC(=O)CN1CCN(CCSc2nc3ccccc3[nH]2)CC1 [Comparative Example 1, 2-[4-[2-(Benzimidazol-2-ylthio)ethyl]piperazin-1-yl]-N-[2,4-bis(methylthio)-6-methyl-3-pyridyl]acetamide] | 5.07 | 5.02 | 0% | 0% | 5.7% | 3.1% | 5.2% | 7.1% | 10.2% |  | 
CSc1cc(C)nc(SC)c1NC(=O)CN1CCN(CCSc2nc3ccccc3[nH]2)CC1 [compound a, 2-[4-[2-(Benzimidazol-2-ylthio)ethyl]piperazin-1-yl]-N-[2,4-bis(methylthio)-6-methyl-3-pyridyl]acetamide] |  |  |  |  |  |  |  |  |  | 0.05 % (W/V) | hardly dissolved
